# Literature values as cited in paper PMC11949389 (Polish Journal of Microbiology, 2025).
# Like-named read-outs stand apart in the source and are kept apart here.
# Tests used:
# Staphylococcus sp. = details: ref Caballero Gómez et al. 2022
# Vibrio anguillarum = details: ref Rossi et al. 2021
# Malassezia pachydermatis = details: ref Schlemmer et al. 2019, Sim et al. 2019
# Vibrio harveyi = details: ref Rossi et al. 2021
# [1] = tested on: Vibrio anguillarum, and Vibrio harveyi; details: ref Rossi et al. (2021)
# Pseudomonas sp. = details: ref Caballero Gómez et al. 2022
# [2] = tested on: Enterococcus, Pseudomonas, and Staphylococcus strains; details: ref Caballero Gómez et al. (2022)
# Enterococcus sp. = details: ref Caballero Gómez et al. 2022
# Streptococcus suis = details: ref de Aguiar et al. 2019
# [3] = tested on: amphotericin B-resistant C. albicans; details: varying among Candida isolates; ref Touil et al. (2020)
# [4] = tested on: Ciprofloxacin-resistant Escherichia coli; details: resistant E. coli strains; ref Owen et al. (2019)
# [5] = tested on: Methicillin-susceptible Staphylococcus aureus; details: ref Owen et al. 2019
# [6] = tested on: Vancomycin-resistant Enterococcus (VRE); details: vancomycin-resistant enterococci strains; ref Owen et al. (2019)
# Escherichia coli = details: antibiotic-sensitive E. coli; ref Owen et al. (2019)
# [7] = tested on: bacteria co-isolated with C. albicans; details: ref Touil et al. (2020)
# [8] = tested on: Vancomycin-sensitive Enterococcus (VSE); details: vancomycin-susceptible enterococci (VSE); ref Owen et al. (2019)
# [9] = tested on: C. albicans and co-isolated bacteria; details: carvacrol combined with cuminaldehyde; ref Touil et al. (2020)
# Klebsiella pneumoniae = details: ref Sayout et al. 2020, de Souza et al. 2021, Kwiatkowski et al. 2022
# Acinetobacter baumannii [10] = details: ref Choudhary et al. 2022
# bovine mastitis = details: versus antibiotic treatment, ref Guo et al. 2023
# Salmonella Thyphimurium = details: ref Giovagnoni et al. 2020
# Proteus mirabilis = details: ref Sim et al. 2019
# Acinetobacter baumannii [11] = tested on: Acinetobacter baumannii
# Candida auris [12] = details: Candida auris; ref Shaban et al. 2020
# TetK efflux pump = details: S. aureus, ref Sousa Silveira et al. (2020)
# staphylococcal isolates = details: ref Sim et al. 2019
# Campylobacter jejuni [13] = details: for MIC/Sensitivity: Campylobacter jejuni, ref Šimunović et al. 2020; for MIC: ref Šimunović et al. (2020)
# HIV-1 = details: HIV-1; ref Mediouni et al. (2020)
# Candida krusei = details: Candida krusei; ref Sharifzadeh et al. 2019; Iraji et al. 2020; Biernasiuk et al. 2022; Stringaro et al. 2022
# Candida albicans [14] = details: Candida albicans; ref Sharifzadeh et al. 2019; Iraji et al. 2020; Shaban et al. 2020; Stringaro et al. 2022; Biernasiuk et al. 2022
# [15] = tested on: Staphylococcus pseudintermedius; details: Staphylococcus pseudintermedius; ref Sim et al. 2019
# Candida auris [16] = details: ref Shaban et al. 2020
# Salmonella Typhimurium = details: ref Giovagnoni et al. (2020)
# Candida albicans [17] = details: ref Shaban et al. 2020
# Candida species = details: ref Stringaro et al. (2022)
# Candida tropicalis = details: Candida tropicalis; ref Iraji et al. 2020; Stringaro et al. 2022
# Candida glabrata = details: Candida glabrata; ref Sharifzadeh et al. 2019; Iraji et al. 2020; Biernasiuk et al. 2022; Stringaro et al. 2022
# [18] = tested on: β-haemolytic Streptococcus spp.; details: ref Sim et al. 2019
# Staphylococcus aureus = details: for MIC: S. aureus; for MIC/Sensitivity: Staphylococcus aureus, ref Kwiatkowski et al. 2020, Sayout et al. 2020, Sousa Silveira et al. 2020, Macêdo et al. 2022, Noumi et al. 2023, Sharma et al. 2023
# Enterobacter cloacae = details: ref Sayout et al. 2020
# Campylobacter jejuni [19] = tested on: Campylobacter jejuni
# influenza H1N1 = details: 20 μg/ml; ref Panagiotopoulos et al. (2021)
# [20] = tested on: Methicillin-resistant Staphylococcus aureus; details: Methicillin-resistant Staphylococcus aureus; ref Owen et al. 2019
structure (smiles),measurement,setting,value
O=C/C=C/c1ccccc1 [Cinnamaldehyde],MIC/Sensitivity,Staphylococcus sp.,0.01 to 0.05 mg/mL
same,MIC/Sensitivity,Vibrio anguillarum,555.75 mg/mL
same,MIC/Sensitivity,Malassezia pachydermatis,0.0025 to 0.64 mg/mL
same,MIC/Sensitivity,Vibrio harveyi,278.616 mg/mL
same,MIC,[1],940 to 7500 µM
same,MIC/Sensitivity,Pseudomonas sp.,0.01 to 0.05 mg/mL
same,MIC,[2],0.01 to 0.05 mg/mL
same,MIC/Sensitivity,Enterococcus sp.,0.01 to 0.05 mg/mL
same,MIC/Sensitivity,Streptococcus suis,0.15625 to 0.3125 mg/mL
CC(C)c1ccc(C=O)cc1 [Cuminaldehyde],MIC,[3],2 to 4 mg/mL
same,MIC,[4],8400 µM
same,MIC/Sensitivity,[5],4979.52 mg/mL
same,MIC,[6],537650 µM
same,MIC,Escherichia coli,2100 µM
same,MIC,[7],"1,000–4,000 μg/ml"
same,MIC,[8],134410 µM
same,MIC in combination,[9],"500–2,000 μg/ml"
CC(C)=CCC/C(C)=C/CO [Geraniol],MIC/Sensitivity,Klebsiella pneumoniae,1.74 mg/mL
same,MIC/Sensitivity,Staphylococcus sp.,0.1 to 0.4 mg/mL
same,Mechanisms of action,Acinetobacter baumannii [10],• Reduction in exopolysaccharide production • Disruption and inhibition of biofilm • Downregulation of csuE gene
same,MIC,[1],940 to 7500 µM
same,MIC/Sensitivity,Pseudomonas sp.,0.1 to 0.4 mg/mL
same,MIC/Sensitivity,Enterococcus sp.,0.1 to 0.35 mg/mL
same,therapeutic effect,bovine mastitis,equivalent therapeutic effects
Cc1ccc(C(C)C)c(O)c1 [Thymol],Mechanisms of action,Salmonella Thyphimurium,• Anti-inflammatory effects • Anti-oxidant properties • Enhanced epithelial barrier integrity • Reduction of bacterial translocation • Improved transepithelial electrical resistance • Inhibited bacterial growth
same,MIC90,Proteus mirabilis,0.2 to 0.292 mg/mL
same,MIC/Sensitivity,Proteus mirabilis,0.2 mg/mL
same,MIC/Sensitivity,Klebsiella pneumoniae,0.78 mg/mL
same,MIC/Sensitivity,Staphylococcus sp.,0.2 to 0.4 mg/mL
same,MIC/Sensitivity,Malassezia pachydermatis,0.01 to 0.8 mg/mL
same,FICI,"Acinetobacter baumannii [11]; combined with ciprofloxacin, ref Aleksic Sabo et al. (2021)",0.25–0.32
same,MIC,Candida auris [12],0.312 mg/mL
same,MIC/Sensitivity,Candida auris [12],0.312 mg/mL
same,efflux pump inhibition,TetK efflux pump,did not act as efflux pump inhibitors
same,MIC90,staphylococcal isolates,0.146 to 0.2 mg/mL
same,MIC90,"Pseudomonas aeruginosa; P. aeruginosa, ref Sim et al. 2019",0.8 mg/mL
same,MIC/Sensitivity,"Pseudomonas aeruginosa; Pseudomonas aeruginosa, ref Owen et al. 2019, Sim et al. 2019, Noumi et al. 2023",0.4 to 0.8 mg/mL
same,MIC/Sensitivity,Campylobacter jejuni [13],0.03125 mg/mL
same,MIC,Campylobacter jejuni [13],31.25 µg/mL
same,MIC,[1],940 to 7500 µM
same,IC50,HIV-1,25.2 µM
same,MIC/Sensitivity,Pseudomonas sp.,0.1 to 0.3 mg/mL
same,MIC/Sensitivity,Candida krusei,0.39 mg/mL
same,MIC/Sensitivity,Candida albicans [14],0.195 to 0.625 mg/mL
same,MIC/Sensitivity,Enterococcus sp.,0.2 to 0.45 mg/mL
same,MIC/Sensitivity,[15],0.1 to 0.2 mg/mL
same,Mechanisms of action,Candida auris [16],• Reduced proteinase production and host cell adherence
same,MIC,Salmonella Typhimurium,1870 µM
same,Mechanisms of action,Candida albicans [17],• Reduced proteinase production
same,MIC,Candida species,0.195 to 0.39 mg/mL
same,MIC/Sensitivity,Candida tropicalis,0.39 mg/mL
same,MIC/Sensitivity,Candida glabrata,0.39 mg/mL
same,MIC/Sensitivity,Streptococcus suis,0.15625 mg/mL
same,MIC/Sensitivity,[18]; β-haemolytic Streptococcus spp.,0.2 to 0.4 mg/mL
same,MIC90,[18]; β-hemolytic Streptococcus,0.292 to 0.4 mg/mL
same,MIC,Staphylococcus aureus; ref Sharma et al. (2023),0.125 to 0.25 mg/mL
same,MIC,Staphylococcus aureus; ref Sousa Silveira et al. (2020),0.072 mg/mL
same,MIC/Sensitivity,Staphylococcus aureus,0.072 to 0.8 mg/mL
Cc1ccc(C(C)C)cc1 [p-Cymene],MIC/Sensitivity,Klebsiella pneumoniae,0.01025 mg/mL
same,MIC/Sensitivity,Acinetobacter baumannii [11]; ref Sayout et al. 2020,0.00513 mg/mL
same,MIC/Sensitivity,Enterobacter cloacae,0.0041 mg/mL
same,MIC/Sensitivity,Campylobacter jejuni [13],1 mg/mL
same,MIC,Campylobacter jejuni [13],"1,000 μg/ml"
same,MIC/Sensitivity,[5],1075.1022 mg/mL
same,efflux pump inhibition,"Campylobacter jejuni [19]; C. jejuni, ref Šimunović et al. (2020)",inhibited efflux pumps
same,Mechanisms of action,"Campylobacter jejuni [19]; Campylobacter jejuni, ref Šimunović et al. 2020",• Inhibition of efflux pump
same,effect on influenza H1N1,influenza H1N1,reduced virus protein expression and impaired nuclear translocation
same,MIC/Sensitivity,[20],2150.2044 mg/mL
same,MIC/Sensitivity,Staphylococcus aureus,0.01025 mg/mL
